Here are results for 1 compound from patent publication US20250236607A1, “CYCLIN-DEPENDENT KINASE 9 (CDK9) DEGRADERS AND METHODS OF USING THEREOF” (OHIO STATE INNOVATION FOUNDATION, priority 2022, published 2025).

Values after ≈ are worked out from the molar mass of the structure shown. Read-outs that look alike come from different tables or passages of the source.

In data set [1] the test system is MV411 cells. The data set is described as follows: MTS cytotoxicity assay against MV411 cells. Type of data set: cell-based. To be noted: Homo sapiens, MV4-11.
The next data set can be described thus: Kinetic solubility assay. To be noted: kinetic solubility, PBS pH 7.4.
Data set [2] has as its target T1, CDK9 (Homo sapiens, UniProt P50750+Q96SW2).
T1 construct: endogenous in cells
The data set is described as follows: CDK9 degradation, automated western blot, triazole-containing AT7519 degraders (MV411). Type of data set: cell-based. Here is the method:
The obtained compounds were tested in biological experiments to measure their potency in inhibiting the growth of AML cells and in their degradation of CDK9. These measurements are reported as half-maximum growth inhibitory and half-maximum degradation concentrations, IC50s and DC50s, respectively. Maximum percent degradation (Dmax) values were also obtained during the CDK9 degradation assessments. The common MTS assay was used to acquire the IC50 values, while the DC50 values were obtained using an automated western blot experiment. These values are presented in Table 2, along with pIC50 (log(nM IC50)) to more accurately reflect the differences/lack thereof in in vitro cytotoxicity. The notation “N:N*” represents the number of linker atoms on each side of the rigid triazole ring for a given degrader. Predicted log D values, calculated using the ChemAxon […], are also provided for each degrader. To characterize the physicochemical properties of the new degrader series, two additional assays were performed: a kinetic aqueous solubility assay and the chromatographic log D experiment described earlier. Aqueous solubility is shown in μM while experimentally determined log D is shown as log k′80. Details regarding the execution of each experiment are provided below.

In data set [3] the test system is CDK9. Nature of the data set: In vivo CDK9 degradation in mice. To be noted: preliminary study, AML-xenografted mice. On the procedure:
Both degraders were able to degrade CDK9 at low nanomolar concentrations. […] Moreover, dissolution of the test compounds in the 10 mM phosphate buffered saline (PBS) media was very difficult. Solvents, such as dimethylsulfoxide (DMSO), polyethylene glycol and Tween 80©, had to be added in generous quantities to the PBS vehicle to facilitate solubility of the test compounds and allow for the preliminary in vivo assessment that led to the conclusion of inactivity in mice. Significant toxicity, in the form of death and inflammation at the injection site, was also observed due to the inclusion of these additives in the PBS vehicle.

Data set [4] can be described thus: Chromatographic log D determination (log k′80). Type of data set: physicochemical. To be noted: chromatographic log D, PLRP-S column, pH 7.72. Put shortly: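 Samples were diluted from DMSO stock to 122 μM in acetonitrile and run on a PLRP-S column in 20:80 aqueous ammonium acetate/acetonitrile, pH 7.72, at 1 mL/min with UV detection at 337 nm. log k′80 used a fixed 0.3 min dead time derived from a five-compound standard set. Runs were done in triplicate.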

Data set [5] concerns MV411 cells. Nature of the data set: Cellular potency in human serum versus fetal bovine serum, MV411. The class given is cell-based. The text has this:
FIGS. 3A-3C. In vitro cellular potency (against MV411 cells) in human serum (HS) versus fetal bovine serum (FBS) for compounds 4.7b (FIG. 3A) 4.9c (FIG. 3B), and 4,8a (FIG. 3C).
This contrasts with 4.8a, which loses its potency by almost 20-fold in human serum (FIG. 3C).

T1 sequence (P50750 whole entry): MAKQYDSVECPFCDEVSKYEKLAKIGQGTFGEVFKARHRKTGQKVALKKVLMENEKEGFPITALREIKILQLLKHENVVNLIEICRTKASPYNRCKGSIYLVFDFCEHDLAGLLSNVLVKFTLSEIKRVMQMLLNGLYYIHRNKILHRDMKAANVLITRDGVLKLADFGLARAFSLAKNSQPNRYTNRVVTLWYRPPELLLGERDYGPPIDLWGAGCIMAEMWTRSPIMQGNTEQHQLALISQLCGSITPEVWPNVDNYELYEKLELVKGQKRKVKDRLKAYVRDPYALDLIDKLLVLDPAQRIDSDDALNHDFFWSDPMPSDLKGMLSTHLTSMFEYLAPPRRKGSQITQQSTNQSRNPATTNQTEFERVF
T1 sequence (O60563 whole entry partner): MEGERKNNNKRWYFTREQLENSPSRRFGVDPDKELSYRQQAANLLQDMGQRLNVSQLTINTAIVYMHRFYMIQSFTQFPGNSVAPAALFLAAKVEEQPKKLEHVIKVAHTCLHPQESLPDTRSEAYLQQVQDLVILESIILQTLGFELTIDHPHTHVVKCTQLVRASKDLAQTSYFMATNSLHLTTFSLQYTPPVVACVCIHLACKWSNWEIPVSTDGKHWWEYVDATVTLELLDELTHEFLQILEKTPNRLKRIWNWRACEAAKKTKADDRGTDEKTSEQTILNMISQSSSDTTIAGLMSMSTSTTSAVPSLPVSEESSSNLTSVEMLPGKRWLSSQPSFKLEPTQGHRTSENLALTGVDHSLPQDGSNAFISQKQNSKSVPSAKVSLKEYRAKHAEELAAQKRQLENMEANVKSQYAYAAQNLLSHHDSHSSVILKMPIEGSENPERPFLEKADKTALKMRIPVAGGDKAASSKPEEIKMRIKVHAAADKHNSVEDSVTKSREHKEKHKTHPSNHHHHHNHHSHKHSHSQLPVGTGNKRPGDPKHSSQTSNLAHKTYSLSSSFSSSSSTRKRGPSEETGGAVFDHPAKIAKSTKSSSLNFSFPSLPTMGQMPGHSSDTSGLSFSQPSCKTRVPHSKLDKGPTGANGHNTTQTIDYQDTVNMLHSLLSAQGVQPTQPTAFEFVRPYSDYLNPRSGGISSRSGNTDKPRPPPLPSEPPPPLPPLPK
T1 sequence (Q96SW2 whole entry): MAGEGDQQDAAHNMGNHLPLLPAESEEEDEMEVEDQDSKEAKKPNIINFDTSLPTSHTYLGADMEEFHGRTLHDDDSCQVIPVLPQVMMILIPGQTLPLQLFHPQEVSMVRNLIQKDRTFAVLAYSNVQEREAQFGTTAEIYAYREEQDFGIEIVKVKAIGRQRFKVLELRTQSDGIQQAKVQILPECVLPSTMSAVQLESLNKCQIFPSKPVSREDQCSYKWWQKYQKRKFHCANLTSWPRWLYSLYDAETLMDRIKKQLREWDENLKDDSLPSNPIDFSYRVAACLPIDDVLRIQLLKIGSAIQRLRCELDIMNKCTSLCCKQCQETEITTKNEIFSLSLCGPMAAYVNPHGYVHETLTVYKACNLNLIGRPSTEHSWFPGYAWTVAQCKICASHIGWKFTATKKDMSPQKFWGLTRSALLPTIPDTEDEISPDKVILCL
T1 sequence (Q16531 whole entry partner): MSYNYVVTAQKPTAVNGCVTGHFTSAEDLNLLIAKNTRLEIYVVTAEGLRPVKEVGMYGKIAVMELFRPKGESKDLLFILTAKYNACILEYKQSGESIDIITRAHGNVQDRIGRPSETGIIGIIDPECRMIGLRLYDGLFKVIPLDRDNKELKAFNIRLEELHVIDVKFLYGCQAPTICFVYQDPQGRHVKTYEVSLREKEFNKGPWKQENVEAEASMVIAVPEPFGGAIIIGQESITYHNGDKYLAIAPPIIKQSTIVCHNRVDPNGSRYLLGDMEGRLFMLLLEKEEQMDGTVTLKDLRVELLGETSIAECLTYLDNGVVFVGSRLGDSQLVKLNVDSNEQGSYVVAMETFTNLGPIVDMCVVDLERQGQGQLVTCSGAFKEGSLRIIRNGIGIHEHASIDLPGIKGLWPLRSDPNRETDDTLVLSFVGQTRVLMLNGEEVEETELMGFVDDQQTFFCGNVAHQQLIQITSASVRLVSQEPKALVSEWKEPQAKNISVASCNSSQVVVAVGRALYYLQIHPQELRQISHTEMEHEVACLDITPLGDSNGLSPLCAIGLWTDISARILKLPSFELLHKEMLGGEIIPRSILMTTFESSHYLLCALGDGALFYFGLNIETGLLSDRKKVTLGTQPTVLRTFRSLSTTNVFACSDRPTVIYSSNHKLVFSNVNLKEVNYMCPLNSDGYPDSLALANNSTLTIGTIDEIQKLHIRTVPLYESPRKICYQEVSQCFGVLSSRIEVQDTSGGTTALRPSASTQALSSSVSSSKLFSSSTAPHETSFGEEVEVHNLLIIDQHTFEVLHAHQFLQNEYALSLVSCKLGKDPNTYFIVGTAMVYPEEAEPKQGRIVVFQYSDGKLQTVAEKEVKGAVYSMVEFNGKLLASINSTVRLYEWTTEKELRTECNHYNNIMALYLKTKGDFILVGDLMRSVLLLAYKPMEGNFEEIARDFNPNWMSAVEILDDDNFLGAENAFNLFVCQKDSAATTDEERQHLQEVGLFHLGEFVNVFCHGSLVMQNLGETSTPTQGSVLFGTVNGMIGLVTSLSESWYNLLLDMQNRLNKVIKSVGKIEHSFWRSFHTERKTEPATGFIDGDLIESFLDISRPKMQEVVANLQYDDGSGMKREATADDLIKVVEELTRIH
Procedure for Kinetic solubility assay: Kinetic Solubility Assay. Kinetic solubility (KS) was measured according to Millipore protocol PC2445 EN00. Test compounds were weighed and diluted with DMSO to 10 mM. From the stock solutions as well as blank (100% DMSO) was taken 17.5 μL and diluted to 500 μM with 332.5 μL of 100 mM phosphate Buffered Saline (PPBS) at pH 7.4 in a 96-well quartz plate. From the 500 μM solutions was taken 150 μL and dispensed into a 96-well Millipore filter plate (Product number: MSSLBPC10). In the quartz plate, serial dilutions were performed down to 0.5 μM using the 100 mM PBS solution, leaving 100 μL of each test sample at 11 different concentrations, representing standards. These steps were performed in triplicate, at minimum, for each test compound. Both plates were shaken on an orbital shaker at 150 rpm for 1.5 hours. The contents of the filter plate were filtered and 100 μL of the filtrate from each well was dispensed into the quartz plate containing standards. The quartz plate was then analyzed using a UV plate reader where absorbance was measured at the relevant wavelength for each compound. After blank subtraction, for each test sample, solubility was determined based on the optical density of filtered samples and the equations derived from the corresponding linear standard curve.

For the compound `O=C1CCC(N2C(=O)c3cccc(OCCCn4cc(CCCCN5CCC(NC(=O)c6n[nH]cc6NC(=O)c6c(Cl)cccc6Cl)CC5)nn4)c3C2=O)C(=O)N1` (stereo not drawn) [Compound 4.7b, 4-(2,6-dichlorobenzamido)-N-(1-(4-(1-(3-((2-(2,6-dioxopiperidin-3-yl)-1,3-dioxoisoindolin-4-yl)oxy)propyl)-1H-1,2,3-triazol-4-yl)butyl)piperidin-4-yl)-1H-pyrazole-3-carboxamide], the IC50 with MV411 cells [1] (defined as log(nM IC50), MV411, read-out: pIC50 (converted)) was 200 nM; with MV411 cells [1] (growth inhibition, MV411 cells, MTS, read-out: IC50), 190 nM. In the data set “Kinetic solubility assay”, the “Solubility” value is 40.9 µM (≈ 33.5 µg/mL). The compound further came in with a solubility at 1.5 h in the data set “Kinetic solubility assay” (phosphate buffered saline, pH 7.4, aqueous buffer, kinetic from dmso stock, Solubility (μM)) of 40 µM (≈ 32.8 µg/mL). The DC50 at CDK9 [2] (CDK9 degradation, MV411 cells) was determined as 69.2 nM. The same compound returned a Dmax at CDK9 [2] (MV4-11, maximum percent CDK9 degradation) of 79.1%. Moreover, the “in vivo CDK9 degradation” value in the data set with CDK9 [3] is “not observed”. The “logk′80” value in data set [4] is recorded as 0.084. The “improvement in cytotoxicity in human serum versus FBS” value in the data set with MV411 cells [5] is around 3 fold.
